We go through eight substances from patent publication EP4756027A1, “DOUBLE-STRANDED RIBONUCLEIC ACID TARGETING PD-L1” (Chia Tai Tianqing Pharmaceutical Group Co., Ltd., priority 2023, dated 2025).

Data set [1] deals with PD-L1 mRNA. Put plainly: Activity evaluation B in human PD-L1 model mice (liver PD-L1 mRNA, qPCR). The class given is in vivo. The following applies: liver tissue, 10 mg/kg subcutaneous; for PD-L1 expression inhibition rate (%), Day 14 after treatment, Avg: day 14, vs PBS group; for PD-L1 expression inhibition rate (%), Day 28 after treatment, Avg: day 28, vs PBS group. On the procedure: (§1) Male human PD-L1 mice (purchased from Shanghai Model Organisms Center, Inc.) aged 6-8 weeks were randomized by weight, with 3 mice in each group. The groups were designated as a PBS group and various sample groups (dsRNA ligand conjugate of the present application).
(§2) Each sample group (dsRNA ligand conjugate of the present application) received a 1 mg/mL solution prepared in 1× PBS (pH 7.4).
Each mouse in the PBS group was subcutaneously injected with 10 mL/kg body weight of 1× PBS (pH 7.4), and each mouse in the sample groups (dsRNA ligand conjugate of the present application) was subcutaneously injected with the corresponding solution prepared as described above. The administration volume for each animal was 10 mL/kg body weight, and the administration dose was 10 mg/kg body weight. The day of the first dose was designated as day 0. The liver was collected on days 14 and 28 after the treatment and preserved in 1.5 mL sterile EP tubes containing 1 mL of animal tissue RNA stabilizing solution (Shanghai Beyotime Biotech Inc., Cat. No. R0118). After being preserved in a refrigerator at 4 °C for 24 h, the liver was transferred to -80 °C for storage. Then, the liver tissue of each mouse was homogenized using a tissue homogenizer, and the total RNA of the liver tissue of each mouse was separately extracted using the TaKaRa MiniBEST Universal RNA Extraction Kit (TAKARA, Cat. No. 9767) according to the procedures for total RNA extraction in the instructions.
The procedures of reverse transcription to synthesize cDNA and fluorescence quantitative PCR, the primers, and the calculation of inhibition rate are shown in Experimental Example 3.
(Real-time PCR tracks product formation cycle by cycle.)

The subject of data set [2] is PD-L1 mRNA. The data set is described as follows: Activity evaluation A in human PD-L1 model mice (liver PD-L1 mRNA, qPCR). The following applies: liver tissue, 10 mg/kg subcutaneous single dose, 14 days after treatment, vs PBS group. The class given is in vivo. On the procedure:
as §1, §2
Each mouse in the PBS group was subcutaneously injected with 10 mL/kg body weight of 1× PBS (pH 7.4), and each mouse in the sample groups (dsRNA ligand conjugate of the present application) was subcutaneously injected with the corresponding solution prepared as described above. The administration volume for each animal was 10 mL/kg body weight, and the administration dose was 10 mg/kg body weight. The day of the first dose was designated as day 0. All mice were sacrificed 14 days after the treatment, and the liver was collected and preserved in 1.5 mL sterile EP tubes containing 1 mL of animal tissue RNA stabilizing solution (Shanghai Beyotime Biotech Inc., Cat. No. R0118). After being preserved in a refrigerator at 4 °C for 24 h, the liver was transferred to -80 °C for storage. […]
For each reverse transcription reaction system, the cDNA-containing solution described above was taken as the qPCR template, and 20 µL of the qPCR reaction system was prepared using the reagent provided by the ChamQ SYBRqPCR Master Mix kit (Vazyme Biotech Co., Ltd., Cat. No. Q311). […] The qPCR reaction system was placed on a LightCycler 480 fluorescent quantitative PCR system and amplified using the three-step method. […] The real-time fluorescent quantitative PCR system separately acquired the dissolution curves of the target gene PD-L1 and the internal reference gene GAPDH in the PCR amplification products to give the Ct values of the target gene PD-L1 and the internal reference gene GAPDH. […]

Consider “M07L01: dsRNA ligand conjugate; modified sense SEQ ID NO 43 with L01 ligand (GalNAc), antisense SEQ ID NO 44 (sense AATGAAAGGACTCACTTGGTA; antisense TACCAAGTGAGTCCTTTCATTTG; 2'-O-methyl and 2'-fluoro modified, full pattern not given here, GalNAc L01 on sense)”, for which the “PD-L1 expression inhibition rate (%), Day 14 after treatment, Avg” value in data set [1] came to 49.0%. As for “M02L01: dsRNA ligand conjugate; modified sense SEQ ID NO 33 with L01 ligand (GalNAc), antisense SEQ ID NO 34 (sense ATTTACTGTCACGGTTCCCAA; antisense TTGGGAACCGTGACAGTAATAGC; 2'-O-methyl and 2'-fluoro modified, full pattern not given here, GalNAc L01 on sense)”, in data set [2], the “PD-L1 expression inhibition rate (%), Avg” value was found to be 67.1%. Regarding “M12L01: dsRNA ligand conjugate; modified sense SEQ ID NO 55 with L01 ligand (GalNAc), antisense SEQ ID NO 56 (sense ATTTACTGTCACGGTTCCCAA; antisense TTGGGAACCGTGACAGTAAATGC; 2'-O-methyl and 2'-fluoro modified, full pattern not given here, GalNAc L01 on sense)”, in data set [1], the “PD-L1 expression inhibition rate (%), Day 14 after treatment, Avg” value was 78.6% and the “PD-L1 expression inhibition rate (%), Day 28 after treatment, Avg” value is on record as 50%.

In the case of “M01L01: dsRNA ligand conjugate; modified sense SEQ ID NO 31 with L01 ligand (GalNAc), antisense SEQ ID NO 32 (sense AGCAATATGACAATTGAATGA; antisense TCATTCAATTGTCATATTGCTAC; 2'-O-methyl and 2'-fluoro modified, full pattern not given here, GalNAc L01 on sense)”, the “PD-L1 expression inhibition rate (%), Avg” value in data set [2] turned out to be 59.3%. On to “M08L01: dsRNA ligand conjugate; modified sense SEQ ID NO 45 with L01 ligand (GalNAc), antisense SEQ ID NO 46 (sense GCTGCATGATCAGCTATGGTA; antisense TACCATAGCTGATCATGCAGCGG; 2'-O-methyl and 2'-fluoro modified, full pattern not given here, GalNAc L01 on sense)”, for which the “PD-L1 expression inhibition rate (%), Day 14 after treatment, Avg” value in data set [1] worked out at 26.7%. With “M10L01: dsRNA ligand conjugate; modified sense SEQ ID NO 49 with L01 ligand (GalNAc), antisense SEQ ID NO 50 (sense ATTGGTCATCCCAGAACTACA; antisense TGTAGTTCTGGGATGACCAATTC; 2'-O-methyl and 2'-fluoro modified, full pattern not given here, GalNAc L01 on sense)”, in data set [1], the “PD-L1 expression inhibition rate (%), Day 14 after treatment, Avg” value came out at 64.6% and the “PD-L1 expression inhibition rate (%), Day 28 after treatment, Avg” value is on record as 47.0%. Consider “M11L01: dsRNA ligand conjugate; modified sense SEQ ID NO 51 with L01 ligand (GalNAc), antisense SEQ ID NO 52 (sense TATTTATTTTGAGTCTGTG; antisense CACAGACTCAAAATAAATAGG; 2'-O-methyl and 2'-fluoro modified, full pattern not given here, GalNAc L01 on sense)”, for which, in data set [1], the “PD-L1 expression inhibition rate (%), Day 14 after treatment, Avg” value amounted to 66.7% and the “PD-L1 expression inhibition rate (%), Day 28 after treatment, Avg” value amounted to 39.2%. Take “M03L01: dsRNA ligand conjugate; modified sense SEQ ID NO 35 with L01 ligand (GalNAc), antisense SEQ ID NO 36 (sense CTATTTATTTTGAGTCTGT; antisense ACAGACTCAAAATAAATAGGA; 2'-O-methyl and 2'-fluoro modified, full pattern not given here, GalNAc L01 on sense)”: the “PD-L1 expression inhibition rate (%), Avg” value in data set [2] came out at 78.2%.
